Numbered stars: 1 amine (or outer) side, 2 acyl side, 3 side chain; on linkers, the order of the positions; unused ones are H or OH. Bridge positions count the residues as written; N and C are the ends. Square brackets hold non-standard residues; d marks the D form. Peptide text beside a SMILES is read from it. * marks the point of attachment. hTyr(3S-OH,4S-OH,3'-OSO3H) = N[C@H](C(=O)O)[C@H](O)[C@@H](O)c1ccc(O)c(OS(=O)(=O)O)c1; Orn(4R-OH,5R-OH) = O=C([C@H](C[C@@H](O)[C@@H](O)N[*:3])N[*:1])[*:2]; Pro(3S-OH,4S-Me) = C[C@H]1CN[C@H](C(=O)O)[C@H]1O; X1 = CCCCCOc1ccc(-c2cc(-c3ccc(C(=O)*)cc3)no2)cc1; Gln(3R-OH) = NC(=O)C[C@@H](O)[C@H](N)C(=O)O; Hyp = O=C(O)[C@@H]1C[C@@H](O)CN1
Legend:
C. albicans = assay: In vitro combination effects, checkerboard method by micro dilution (FIC index); format: cell-based, Candida albicans
Description: (§1) A clinically isolated strain retained by the Medical Mycology Research Center of Chiba University (Code No. IFM) and a clinically isolated strain retained by the Life Science Research Center of Gifu University (Code No. E) were used as Candida and Aspergillus strains.
(§2) Fungus liquid obtained by static culturing at 35° C. for 48 hours in Sabouraud Dextrose liquid medium (SDB, Becton, Dickinson and Co.) was diluted with RPMI 1640 medium (Nissui Pharmaceutical Co., Ltd.) containing 0.165 M 3-(N-morpholino)propanesulfonic acid (MOPS) to prepare a fungus liquid having a fungus concentration of 1×10^3 cells/mL to 2×10^3 cells/mL.
(§3) Test Compound 1 (0.0005 μg/mL to 1.56 μg/mL) in the horizontal rows (12 wells) of a 96-well flat-bottom plate, and an antifungal agent in the form of ravuconazole (0.0015 μg/mL to 6.25 μg/mL), fluconazole (0.008 μg/mL to 32 μg/mL), voriconazole (0.0002 μg/mL to 8 μg/mL), micafungin (0.0005 μg/mL to 0.25 μg/mL), caspofungin (0.0005 μg/mL to 1 μg/mL) or amphotericin B (0.008 μg/mL to 8 μg/mL) in the vertical rows (8 wells) of the flat-bottom plate were prepared by diluting so as to blend together using RPMI 1640 medium containing 0.165 M MOPS to obtain a control group, a single Test Compound 1 group, each one of antifungal agents groups and combination groups of Test Compound 1+each one of antifungal agents.
(§4) The fungus liquids prepared in (1) were inoculated into the wells of 96-well flat-bottom plate containing 20 μL/well to 75 μL/well of the diluted test drug liquids prepared in (2) at 80 μL/well to 125 μL/well, followed by aerobically static culturing for 25 hours to 48 hours at 35° C.
(§5) Combination effects of Test Compound 1 and the antifungal agents were measured with the checkerboard method by micro dilution.
(§6) Interaction between both drugs was assessed by calculating the FIC index using the calculation formula indicated below.
(§7) The FIC index was calculated for each combination of antifungal agent concentrations that inhibited fungal growth, and the minimum value of the resulting FIC index was used as a combination FIC index.
(§8) A combination FIC index of 0.5 or less was evaluated as indicating synergistic action, that of 0.5 to 1 or less was evaluated as indicating additive action, and that of 1 to 4 or less was evaluated as indicating indifferent action.
(§9) FIC Index=(MIC value of drug A during combination use/MIC value of drug A when used alone)+(MIC value of drug B during combination use/MIC value of drug B when used alone) (Calculation Formula)

C. tropicalis = assay: as above; format: cell-based, Candida tropicalis
Description: as §1, §2, §3, §4, §5, §6, §7, §8, §9

C. glabrata = assay: as above; format: cell-based, Candida glabrata; settings: combination use with Test Compound 1
Description: as §1, §2, §3, §4, §5, §6, §7, §8, §9

A. fumigatus = assay: as above; format: cell-based, Aspergillus fumigatus
Description: as §1
(§10) An Aspergillus strain stored frozen at −80° C., or spores obtained by static culturing at 35° C. for 1 week in Potato Dextrose agar medium (PDA, Eiken Chemical Co., Ltd.) followed by scraping from the container with a metal loop, was diluted with RPMI 1640 medium containing 0.165 M MOPS to prepare a fungus liquid having a fungus concentration of 0.75×10^4 cells/mL to 1.33×10^4 cells/mL.
as §3, §4, §5, §6, §7, §8, §9

A. flavus = assay: as above; format: cell-based, Aspergillus flavus; settings: A. flavus (4 strains)
Description: as §1, §10, §3, §4, §5, §6, §7, §8, §9

[1] = system: A. fumigatus strain IFM52108; assay: A. fumigatus respiratory tract infection model; format: in vivo, mice; settings: for Combination effects in mouse Aspergillus fumigatus infection model: combination with the test compound of the invention
Description: (§11) Female DBA/2N mice (age 8 weeks, Charles River Laboratories Japan, Inc.) were subcutaneously administered 200 mg/kg of 5-fluorouracil 5 or 6 days prior to infection in order to put the mice into a compromised state.
(§12) A. fumigatus strain IFM52108 and A. flavus strain IFM50915 were used.
A liquid containing spores of A. fumigatus strain IFM52108 stored at −80° C. was applied to Potato Dextrose agar medium (PDA, Eiken Chemical Co., Ltd.) followed by static culturing for 5 to 7 days at 35° C. and suspending in sterile physiological saline containing 0.05% Tween 80.
The number of spores was counted using a hemocytometer, and the liquid was diluted with sterile physiological saline containing 0.05% Tween 80 to a concentration of 1.2×10^6 cells/mL to 2.5×10^6 cells/mL to obtain an inoculation fungus liquid.
(§13) 50 μl of inoculation fungus liquid were inoculated into the nasal cavities of 9-week-old mice at 0.3×10^5 cells/mouse to 1.25×10^5 cells/mouse under Ketalar anesthesia.
(§14) 0.1 mL to 0.2 mL of each drug solution (dissolved in sterile physiological saline or 5% glucose solution, or dissolved in sterile physiological saline or 5% glucose solution containing 6.5% dimethylsulfoxide and 3.5% Tween 80) was administered to the individual and combination dose groups either into the peritoneal cavity or into the stomach using a gastric cannula corresponding to the administration route of the drug for 3 to 4 days at the rate of 1 to 2 times per day starting 0.5 hours to 1 hour after inoculation of fungus.
(§15) There were 5 to 9 animals in each group.
(§16) Infection protection results were assessed on survival rate 14 days after infection.

[2] = system: A. flavus strain IFM50915; assay: A. flavus respiratory tract infection model; format: in vivo, mice
Description: as §11, §12
A liquid containing spores of A. flavus strain IFM50915 stored at −80° C. was thawed, and the number of spores was counted using a hemocytometer followed by diluting with sterile physiological saline containing 0.05% Tween 80 to a concentration of 0.6×10^6 cells/mL to 1.0×10^6 cells/mL to obtain an inoculation fungus liquid.
as §13, §14, §15, §16

## C[C@@H](c1nc(-c2ccc(C#N)cc2)cs1)[C@](O)(Cn1cncn1)c1ccc(F)cc1F [Ravuconazole, ravuconazole]
C. albicans; C. albicans (9 strains)
  Ratio indicating Additive effect of combination use with Test Compound 1: 56%
  Ratio indicating Antagonistic effect of combination use with Test Compound 1: 0%
  Ratio indicating Indifferent effect of combination use with Test Compound 1: 0%
  Ratio indicating Synergistic effect of combination use with Test Compound 1: 44%
C. albicans; Candida albicans IFM49738, resistant to azole antifungal agents
  Effect of combination use with Test Compound 1 (FIC index evaluation): synergistic (A combination FIC index of 0.5 or less was evaluated as indicating synergistic action)
C. tropicalis; C. tropicalis (5 strains)
  Ratio indicating Additive effect of combination use with Test Compound 1: 0%
  Ratio indicating Antagonistic effect of combination use with Test Compound 1: 0%
  Ratio indicating Indifferent effect of combination use with Test Compound 1: 0%
  Ratio indicating Synergistic effect of combination use with Test Compound 1: 100%
C. tropicalis; Candida tropicalis strains E83037, E83038, E83039, E83040 and E83041, resistant to azole antifungal agents
  Effect of combination use with Test Compound 1 (FIC index evaluation): synergistic (A combination FIC index of 0.5 or less was evaluated as indicating synergistic action)
C. glabrata; C. glabrata (5 strains)
  Ratio indicating Additive effect of combination use with Test Compound 1: 60%
  Ratio indicating Antagonistic effect of combination use with Test Compound 1: 0%
  Ratio indicating Indifferent effect of combination use with Test Compound 1: 0%
  Ratio indicating Synergistic effect of combination use with Test Compound 1: 40%
A. fumigatus; A. fumigatus (16 strains)
  Ratio indicating Additive effect of combination use with Test Compound 1: 6%
  Ratio indicating Antagonistic effect of combination use with Test Compound 1: 0%
  Ratio indicating Indifferent effect of combination use with Test Compound 1: 94%
  Ratio indicating Synergistic effect of combination use with Test Compound 1: 0%
A. flavus; Table 2
  Ratio indicating Additive effect of combination use with Test Compound 1: 25%
  Ratio indicating Antagonistic effect of combination use with Test Compound 1: 0%
  Ratio indicating Indifferent effect of combination use with Test Compound 1: 75%
  Ratio indicating Synergistic effect of combination use with Test Compound 1: 0%
[1]; RVCZ 5 mg/kg
  14-day survival rate: 0%
[1]; RVCZ 10 mg/kg
  14-day survival rate: 40%
[1]
  Combination effects in mouse Aspergillus fumigatus infection model: synergistic combination effects
[2]; RVCZ 2.5 mg/kg
  14-day survival rate: 40%
[2]; RVCZ 5 mg/kg
  14-day survival rate: 80%

## CCCCCOc1ccc(-c2cc(-c3ccc(C(=O)N[C@H]4C[C@@H](O)[C@@H](O)NC(=O)[C@@H]5[C@@H](O)[C@@H](C)CN5C(=O)[C@H]([C@H](O)CC(N)=O)NC(=O)[C@H]([C@H](O)[C@@H](O)c5ccc(O)c(OS(=O)(=O)O)c5)NC(=O)[C@@H]5C[C@@H](O)CN5C(=O)[C@H]([C@@H](C)O)NC4=O)cc3)no2)cc1 [Micafungin, micafungin] (X1-[Orn(4R-OH,5R-OH)]T[Hyp][hTyr(3S-OH,4S-OH,3'-OSO3H)][Gln(3R-OH)][Pro(3S-OH,4S-Me)]; lactam 1-C)
C. albicans; C. albicans (20 strains)
  Ratio indicating Additive effect of combination use with Test Compound 1: 80%
  Ratio indicating Antagonistic effect of combination use with Test Compound 1: 0%
  Ratio indicating Indifferent effect of combination use with Test Compound 1: 20%
  Ratio indicating Synergistic effect of combination use with Test Compound 1: 0%
C. tropicalis; C. tropicalis (10 strains)
  Ratio indicating Additive effect of combination use with Test Compound 1: 100%
  Ratio indicating Antagonistic effect of combination use with Test Compound 1: 0%
  Ratio indicating Indifferent effect of combination use with Test Compound 1: 0%
  Ratio indicating Synergistic effect of combination use with Test Compound 1: 0%
C. glabrata; C. glabrata (10 strains)
  Ratio indicating Additive effect of combination use with Test Compound 1: 70%
  Ratio indicating Antagonistic effect of combination use with Test Compound 1: 0%
  Ratio indicating Indifferent effect of combination use with Test Compound 1: 30%
  Ratio indicating Synergistic effect of combination use with Test Compound 1: 0%
A. fumigatus; A. fumigatus (18 strains)
  Ratio indicating Additive effect of combination use with Test Compound 1: 0%
  Ratio indicating Antagonistic effect of combination use with Test Compound 1: 0%
  Ratio indicating Indifferent effect of combination use with Test Compound 1: 0%
  Ratio indicating Synergistic effect of combination use with Test Compound 1: 100%
A. flavus; Table 1
  Ratio indicating Additive effect of combination use with Test Compound 1: 0%
  Ratio indicating Antagonistic effect of combination use with Test Compound 1: 0%
  Ratio indicating Indifferent effect of combination use with Test Compound 1: 0%
  Ratio indicating Synergistic effect of combination use with Test Compound 1: 100%
[1]; MCFG 1 mg/kg
  14-day survival rate: 0%
[1]; MCFG 2 mg/kg
  14-day survival rate: 40%
[1]
  Combination effects in mouse Aspergillus fumigatus infection model: synergistic combination effects
[2]; MCFG 0.25 mg/kg, Table 5
  14-day survival rate: 0%
[2]; MCFG 0.5 mg/kg, Table 4
  14-day survival rate: 50%
[2]; MCFG 0.5 mg/kg, Table 5
  14-day survival rate: 33.3%
[2]; combination with the test compound of the invention
  Combined effects in mouse Aspergillus flavus infection model: synergistic combined effects

Source: patent US20130288956A1, “COMBINED PHARMACEUTICAL COMPOSITION AS ANTIFUNGAL AGENT” (priority 2010, published 2013)
